Test results taken from paper PMC5201275, “Structural and Catalytic Properties of S1 Nuclease from Aspergillus oryzae Responsible for Substrate Recognition, Cleavage, Non–Specificity, and Inhibition” (PLoS ONE, 2016).

Molecular target: T1, S1 nuclease (S1wt; S1D65N) (Aspergillus oryzae, UniProt P24021)
T1 construct: gene nucS; Endo F1 deglycosylated for crystals; three Zn2+
T1 sequence (P24021 21-287): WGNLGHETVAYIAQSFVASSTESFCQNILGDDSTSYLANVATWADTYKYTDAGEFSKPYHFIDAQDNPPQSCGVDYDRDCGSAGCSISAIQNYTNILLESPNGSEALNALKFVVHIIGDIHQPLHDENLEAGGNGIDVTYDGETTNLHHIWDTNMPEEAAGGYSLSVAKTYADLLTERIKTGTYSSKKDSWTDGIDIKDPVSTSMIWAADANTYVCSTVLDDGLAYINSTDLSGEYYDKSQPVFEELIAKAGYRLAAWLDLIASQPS
Test: X-ray crystal structure
Assay type: binding

Compound | X-ray crystal structure (pH 5.5, zinc cluster, first binding mode, occupancy 0.5, not added (no co-crystallization), also in 5FBB (pH 6.5) and 5FBD (pH 4.2, second mode)) | X-ray crystal structure (pH 4.2, NBS1, shallow mode, with phosphate in zinc cluster, co-crystallized with dC(pS)dC)
O=P(O)(O)O [Pi, phosphate ion] | A phosphate ion inside the zinc cluster in the first binding mode is modeled | –
Nc1ccn([C@H]2C[C@H](O)[C@@H](CO)O2)c(=O)n1 [dCyt, 2'–deoxycytidine] | – | The structure contains one phosphate ion and one molecule of dCyt in the active site
